# According to the supplement of paper PMC10307832:
# What was measured:
# Test in all cases: relative viability (nuclei count vs DMSO), 5 days (fraction); higher = more cells survive
# 201T = tested on: 201T
# How it was run: (§1)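 Lung cancer cell lines in 1536-well plates got either a single drug or a fixed anchor-drug dose together with five library-drug doses (not always all listed) in √10 steps, by pin tool, on the day after seeding. Nuclei were counted after 5 days, and relative viability is the treated-to-vehicle ratio of nuclei counts. Values are medians of duplicate plates.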
# NCI-H2085 = tested on: NCI-H2085
# How it was run: as §1
# LOU-NH91 = tested on: LOU-NH91
# How it was run: as §1
# HCC-44 = tested on: HCC-44
# How it was run: as §1
# NCI-H1734 = tested on: NCI-H1734
# How it was run: as §1
# RERF-LC-KJ = tested on: RERF-LC-KJ
# How it was run: as §1
# NCI-H2405 = tested on: NCI-H2405
# How it was run: as §1
# SW 900 = tested on: SW 900
# How it was run: as §1
# NCI-H520 = tested on: NCI-H520
# How it was run: as §1
# NCI-H2347 = tested on: NCI-H2347
# How it was run: as §1
# NCI-H2170 = tested on: NCI-H2170
# How it was run: as §1
# NCI-H1793 = tested on: NCI-H1793
# How it was run: as §1
# NCI-H1650 = tested on: NCI-H1650
# How it was run: as §1
# COR-L23 = tested on: COR-L23
# How it was run: as §1
# ABC-1 = tested on: ABC-1
# How it was run: as §1
# NCI-H3122 = tested on: NCI-H3122
# How it was run: as §1
# NCI-H441 = tested on: NCI-H441
# How it was run: as §1
# PC-14 = tested on: PC-14
# How it was run: as §1
# NCI-H1993 = tested on: NCI-H1993
# How it was run: as §1
# NCI-H647 = tested on: NCI-H647
# How it was run: as §1
# EKVX = tested on: EKVX
# How it was run: as §1
# EPLC-272H = tested on: EPLC-272H
# How it was run: as §1
# NCI-H2023 = tested on: NCI-H2023
# How it was run: as §1
smiles,measurement,setting,value
COc1cc(N2CCC(C(N)=O)CC2)ccc1Nc1nc(N)c(Cl)c(Nc2ccccc2S(=O)(=O)C(C)C)n1 [HG-5-88-01] + O=C(c1cc(Cc2n[nH]c(=O)c3ccccc23)ccc1F)N1CCN(C(=O)C2CC2)CC1 [Olaparib] (partner 8 µM),relative viability,201T; first compound 0.04 µM,0.841
same,relative viability,201T; first compound 0.1265 µM,0.844
same,relative viability,201T; first compound 1.265 µM,0.795
same,relative viability,201T; first compound 4 µM,0.831
same,relative viability,NCI-H2085; first compound 0.04 µM,0.853
same,relative viability,NCI-H2085; first compound 0.1265 µM,0.753
same,relative viability,NCI-H2085; first compound 0.4 µM,0.833
same,relative viability,NCI-H2085; first compound 1.265 µM,0.765
same,relative viability,NCI-H2085; first compound 4 µM,0.871
same,relative viability,LOU-NH91; first compound 0.04 µM,0.861
same,relative viability,LOU-NH91; first compound 0.1265 µM,0.882
same,relative viability,LOU-NH91; first compound 0.4 µM,0.733
same,relative viability,LOU-NH91; first compound 1.265 µM,0.514
same,relative viability,LOU-NH91; first compound 4 µM,0.618
same,relative viability,HCC-44; first compound 0.04 µM,0.912
same,relative viability,HCC-44; first compound 0.1265 µM,0.957
same,relative viability,HCC-44; first compound 0.4 µM,0.934
same,relative viability,HCC-44; first compound 1.265 µM,0.921
same,relative viability,HCC-44; first compound 4 µM,0.919
same,relative viability,NCI-H1734; first compound 0.04 µM,0.681
same,relative viability,NCI-H1734; first compound 0.1265 µM,0.583
same,relative viability,NCI-H1734; first compound 0.4 µM,0.642
same,relative viability,NCI-H1734; first compound 1.265 µM,0.54
same,relative viability,NCI-H1734; first compound 4 µM,0.558
same,relative viability,RERF-LC-KJ; first compound 0.04 µM,0.937
same,relative viability,RERF-LC-KJ; first compound 0.1265 µM,0.957
same,relative viability,RERF-LC-KJ; first compound 0.4 µM,0.878
same,relative viability,RERF-LC-KJ; first compound 1.265 µM,0.884
same,relative viability,RERF-LC-KJ; first compound 4 µM,0.519
same,relative viability,NCI-H2405; first compound 0.04 µM,0.885
same,relative viability,NCI-H2405; first compound 0.1265 µM,0.904
same,relative viability,NCI-H2405; first compound 0.4 µM,0.807
same,relative viability,NCI-H2405; first compound 1.265 µM,0.524
same,relative viability,NCI-H2405; first compound 4 µM,0.75
same,relative viability,SW 900; first compound 0.04 µM,0.954
same,relative viability,SW 900; first compound 0.1265 µM,1.06
same,relative viability,SW 900; first compound 0.4 µM,0.867
same,relative viability,SW 900; first compound 1.265 µM,0.848
same,relative viability,SW 900; first compound 4 µM,0.631
same,relative viability,NCI-H520; first compound 0.04 µM,0.289
same,relative viability,NCI-H520; first compound 0.1265 µM,0.33
same,relative viability,NCI-H520; first compound 0.4 µM,0.389
same,relative viability,NCI-H520; first compound 1.265 µM,0.327
same,relative viability,NCI-H520; first compound 4 µM,0.363
same,relative viability,NCI-H2347; first compound 0.04 µM,0.664
same,relative viability,NCI-H2347; first compound 0.1265 µM,0.569
same,relative viability,NCI-H2347; first compound 0.4 µM,0.61
same,relative viability,NCI-H2347; first compound 1.265 µM,0.539
same,relative viability,NCI-H2347; first compound 4 µM,0.549
same,relative viability,NCI-H2170; first compound 0.04 µM,0.64
same,relative viability,NCI-H2170; first compound 0.1265 µM,0.669
same,relative viability,NCI-H2170; first compound 0.4 µM,0.605
same,relative viability,NCI-H2170; first compound 1.265 µM,0.53
same,relative viability,NCI-H2170; first compound 4 µM,0.545
same,relative viability,NCI-H1793; first compound 0.04 µM,0.878
same,relative viability,NCI-H1793; first compound 0.1265 µM,0.84
same,relative viability,NCI-H1793; first compound 0.4 µM,0.848
same,relative viability,NCI-H1793; first compound 1.265 µM,0.651
same,relative viability,NCI-H1793; first compound 4 µM,0.847
same,relative viability,NCI-H1650; first compound 0.04 µM,0.729
same,relative viability,NCI-H1650; first compound 0.1265 µM,0.753
same,relative viability,NCI-H1650; first compound 0.4 µM,0.969
same,relative viability,NCI-H1650; first compound 1.265 µM,0.65
same,relative viability,NCI-H1650; first compound 4 µM,0.837
same,relative viability,COR-L23; first compound 0.04 µM,0.336
same,relative viability,COR-L23; first compound 0.1265 µM,0.386
same,relative viability,COR-L23; first compound 0.4 µM,0.28
same,relative viability,COR-L23; first compound 1.265 µM,0.319
same,relative viability,COR-L23; first compound 4 µM,0.246
same,relative viability,ABC-1; first compound 0.04 µM,1
same,relative viability,ABC-1; first compound 0.1265 µM,0.494
same,relative viability,ABC-1; first compound 0.4 µM,0.688
same,relative viability,ABC-1; first compound 1.265 µM,0.686
same,relative viability,ABC-1; first compound 4 µM,0.589
same,relative viability,NCI-H3122; first compound 0.04 µM,0.594
same,relative viability,NCI-H3122; first compound 0.1265 µM,0.403
same,relative viability,NCI-H3122; first compound 0.4 µM,0.3
same,relative viability,NCI-H3122; first compound 1.265 µM,0.285
same,relative viability,NCI-H3122; first compound 4 µM,0.15
same,relative viability,NCI-H441; first compound 0.04 µM,0.557
same,relative viability,NCI-H441; first compound 0.1265 µM,0.639
same,relative viability,NCI-H441; first compound 0.4 µM,0.701
same,relative viability,NCI-H441; first compound 1.265 µM,0.574
same,relative viability,NCI-H441; first compound 4 µM,0.434
same,relative viability,PC-14; first compound 0.04 µM,0.257
same,relative viability,PC-14; first compound 0.1265 µM,0.339
same,relative viability,PC-14; first compound 0.4 µM,0.321
same,relative viability,PC-14; first compound 1.265 µM,0.307
same,relative viability,PC-14; first compound 4 µM,0.0752
same,relative viability,NCI-H1993; first compound 0.04 µM,1.12
same,relative viability,NCI-H1993; first compound 0.1265 µM,1.03
same,relative viability,NCI-H1993; first compound 0.4 µM,0.949
same,relative viability,NCI-H1993; first compound 4 µM,0.842
same,relative viability,NCI-H647; first compound 0.04 µM,0.552
same,relative viability,NCI-H647; first compound 0.1265 µM,0.553
same,relative viability,NCI-H647; first compound 1.265 µM,0.667
same,relative viability,NCI-H647; first compound 4 µM,0.738
same,relative viability,EKVX; first compound 0.04 µM,0.896
same,relative viability,EKVX; first compound 0.1265 µM,0.955
same,relative viability,EKVX; first compound 0.4 µM,0.813
same,relative viability,EKVX; first compound 4 µM,0.633
same,relative viability,EPLC-272H; first compound 0.04 µM,0.976
same,relative viability,EPLC-272H; first compound 0.1265 µM,0.785
same,relative viability,EPLC-272H; first compound 0.4 µM,0.959
same,relative viability,EPLC-272H; first compound 1.265 µM,0.495
same,relative viability,EPLC-272H; first compound 4 µM,0.0585
same,relative viability,NCI-H2023; first compound 0.04 µM,0.515
same,relative viability,NCI-H2023; first compound 0.1265 µM,0.519
same,relative viability,NCI-H2023; first compound 0.4 µM,0.445
same,relative viability,NCI-H2023; first compound 1.265 µM,0.441
same,relative viability,NCI-H2023; first compound 4 µM,0.277
